# Marks after values point to notes of the source that are not given here.
# Assays:
# Format in all cases: in vivo, Sprague-Dawley rats
# [1] = tested on: rat model of CNS-OT; assay: Latency to seizure in rat model of CNS-OT (hyperbaric oxygen, 5 ATA); conditions: 5 g/kg
# Protocol: (§1) The effect of various ketogenic compositions on latency to seizure and seizure severity was tested in a rat model of CNS-OT. Adult male Sprague-Dawley rats (n=60), 250-300 grams (Harlan) were used in the experiments described herein. Rats were given normal chow and water ad libitum and kept on a 12-hour light/dark cycle. At […], the rats were assigned to one of 5 treatment groups: control (water), 1,3-butanediol acetoacetate diester (KE, 10 g/kg), KE/2 (KE, 5 g/kg), KE+MCT (1,3-butanediol acetoacetate diester+medium chain triglyceride, 5 g/kg+5 g/kg) and KS+MCT (Na^+Ca^2+BHB 5 g/kg+MCT 5 g/kg). Rats received one dose of the designated ketogenic agent or water by oral gavage. Rats were then placed into the hyperbaric chamber 29-30 minutes after treatment, and pressurized to 5 atmospheres as provided below, such that rats were exposed to the hyperbaric conditions at 60 minutes after treatment.
# The hyperbaric system consisted of two main elements: 1) a plexiglass chamber (˜3 liter capacity, Diamond Box, Buxco, Electronics Inc., model PLY3114), that housed the rat during the experiment, and 2) a hyperbaric chamber (Reimers System Inc.—7.8 ATA MWP), that contained the plexiglass chamber and functioned as the pressure vessel. Both chambers were connected to an air compressor (oil-less rotary scroll compressor—model DK6086, Powerex).
# (§2) Rats were placed in the hyperbaric chamber, where the rats were allowed 10 minutes to acclimate in air. Then the plexiglass chamber was filled with pure oxygen, and the rats were allowed another 15 minutes to acclimate. The outer chamber was pressurized using air (capacity ˜205 liters) to minimize the risk of an electrical-induced fire. Next, both chambers were compressed to 5 atmospheres absolute (ATA) at a rate of approximately 1 ATA/min. Each experiment was visually monitored via a live camera.
# Latency to seizure (LS) was calculated from the moment at which the internal and the external chambers reached 5 ATA until the onset of CNS-OT seizures, as identified above. After the onset of seizures, the plexiglass chamber was flushed with air to quickly terminate seizure, and both chambers decompressed to sea level. Decompression rate was 1 ATA/min. A small sample of blood was drawn and tested immediately for glucose and beta-hydroxybutyrate levels.
# [2] = tested on: rat model of CNS-OT; assay: Seizure severity score in rat model of CNS-OT; conditions: 5 g/kg, oral gavage; FIG. 4
# Protocol: as §1
# as §2, with “Next, both chambers were compressed to 5 atmospheres absolute (ATA) at a rate of approximately 1 ATA/min.” left out, “camera. […]” for “camera.”
# [3] = Blood beta-hydroxybutyrate (BHB) levels after removal from the hyperbaric chamber; conditions: 5 g/kg, oral gavage
# Protocol: as §1, with “Rats were then placed into the hyperbaric chamber 29-30 minutes after treatment, and pressurized to 5 atmospheres as provided below, such that rats were exposed to the hyperbaric conditions at 60 minutes after treatment.” left out
# (§3) Latency to seizure (LS) was calculated from the moment at which the internal and the external chambers reached 5 ATA until the onset of CNS-OT seizures, as identified above. […]
# (§4) Body weights were collected for all rats prior to oral gavage of treatment. Blood concentrations of glucose and beta-hydroxybutyrate (BHB) were determined utilizing a commercially available glucose/ketone monitoring system (Precision Xtra® blood glucose and ketone meter) immediately following removal from the hyperbaric chamber. […]
# [4] = Blood glucose levels after removal from the hyperbaric chamber; conditions: 10 g/kg, oral gavage; FIG. 7
# Protocol: as §1, with “Rats were then placed into the hyperbaric chamber 29-30 minutes after treatment, and pressurized to 5 atmospheres as provided below, such that rats were exposed to the hyperbaric conditions at 60 minutes after treatment.” left out
# as §3, §4
structure (smiles),measurement,setting,value
"CC(=O)CC(=O)OCCC(C)OC(=O)CC(C)=O (centres unmarked) [KE, 1,3-butanediol acetoacetate diester]","T-test (p), latency to time of seizure vs control","[1]; one dose oral gavage, 5 ATA O2, all collected data",0.256†
same,Latency to seizure compared to control,"[1]; oral gavage, FIG. 1, all data",about 2 ×
same,"T-test (p), latency to time of seizure vs control","[1]; oral gavage, outliers excluded (2 standard deviations)",0.023*
same,Latency to seizure compared to control (in words),"[1]; outliers removed, FIG. 2",significantly increased latency to seizure compared to control
same,"Seizure severity (score 0-3) vs control, in words",[2],some suppression
same,Blood BHB levels compared to control,[3]; FIG. 6,about 3 ×
same,"T-test (p), BHB levels vs control",[3]; all collected data,0.0012**
same,Blood glucose levels (in words),[4],highest blood glucose levels

# From US10945975B2, “Delaying latency to seizure by combinations of ketone supplements” (priority 2016, dated 2021)
